Marks after values point to notes of the source that are not given here.
Key:
[1] = biological target: KDR (Homo sapiens, UniProt P35968); assay: Tyrosine kinase inhibition; format: biochemical
[2] = system: CFPAC-1 cells; assay: Tumor cell proliferation in vitro; format: cell-based
[3] = system: A375 cells; assay: Tumor cell proliferation in vitro; format: cell-based, human
[4] = system: RET and ERK activation; assay: Activation of RET and ERK in TT cells; format: cell-based, human; conditions: concentration-dependent
[5] = system: human thyroid cancer TT tumors; assay: TT tumors in nude mice; format: in vivo; conditions: for RTV ±SD / T/C / Terminal Tumor Volume: TT tumors
From the text: (§1) was higher than that of vandetanib .
as §1
Table S15. Efficacy of HA121-28 on human thyroid cancer TT tumors

[6] = Plasma protein binding; format: in vitro ADME; conditions: rats
[7] = Plasma protein binding; format: in vitro ADME; conditions: monkeys
[8] = biological target: FLT3 (Homo sapiens, UniProt P36888); assay: Tyrosine kinase inhibition; format: biochemical
[9] = biological target: ABL1 (Homo sapiens, UniProt P00519); assay: Tyrosine kinase inhibition; format: biochemical
[10] = system: HUVEC cells; conditions: 50 ng/mL VEGF165

Chain of KDR (P35968 20-1356): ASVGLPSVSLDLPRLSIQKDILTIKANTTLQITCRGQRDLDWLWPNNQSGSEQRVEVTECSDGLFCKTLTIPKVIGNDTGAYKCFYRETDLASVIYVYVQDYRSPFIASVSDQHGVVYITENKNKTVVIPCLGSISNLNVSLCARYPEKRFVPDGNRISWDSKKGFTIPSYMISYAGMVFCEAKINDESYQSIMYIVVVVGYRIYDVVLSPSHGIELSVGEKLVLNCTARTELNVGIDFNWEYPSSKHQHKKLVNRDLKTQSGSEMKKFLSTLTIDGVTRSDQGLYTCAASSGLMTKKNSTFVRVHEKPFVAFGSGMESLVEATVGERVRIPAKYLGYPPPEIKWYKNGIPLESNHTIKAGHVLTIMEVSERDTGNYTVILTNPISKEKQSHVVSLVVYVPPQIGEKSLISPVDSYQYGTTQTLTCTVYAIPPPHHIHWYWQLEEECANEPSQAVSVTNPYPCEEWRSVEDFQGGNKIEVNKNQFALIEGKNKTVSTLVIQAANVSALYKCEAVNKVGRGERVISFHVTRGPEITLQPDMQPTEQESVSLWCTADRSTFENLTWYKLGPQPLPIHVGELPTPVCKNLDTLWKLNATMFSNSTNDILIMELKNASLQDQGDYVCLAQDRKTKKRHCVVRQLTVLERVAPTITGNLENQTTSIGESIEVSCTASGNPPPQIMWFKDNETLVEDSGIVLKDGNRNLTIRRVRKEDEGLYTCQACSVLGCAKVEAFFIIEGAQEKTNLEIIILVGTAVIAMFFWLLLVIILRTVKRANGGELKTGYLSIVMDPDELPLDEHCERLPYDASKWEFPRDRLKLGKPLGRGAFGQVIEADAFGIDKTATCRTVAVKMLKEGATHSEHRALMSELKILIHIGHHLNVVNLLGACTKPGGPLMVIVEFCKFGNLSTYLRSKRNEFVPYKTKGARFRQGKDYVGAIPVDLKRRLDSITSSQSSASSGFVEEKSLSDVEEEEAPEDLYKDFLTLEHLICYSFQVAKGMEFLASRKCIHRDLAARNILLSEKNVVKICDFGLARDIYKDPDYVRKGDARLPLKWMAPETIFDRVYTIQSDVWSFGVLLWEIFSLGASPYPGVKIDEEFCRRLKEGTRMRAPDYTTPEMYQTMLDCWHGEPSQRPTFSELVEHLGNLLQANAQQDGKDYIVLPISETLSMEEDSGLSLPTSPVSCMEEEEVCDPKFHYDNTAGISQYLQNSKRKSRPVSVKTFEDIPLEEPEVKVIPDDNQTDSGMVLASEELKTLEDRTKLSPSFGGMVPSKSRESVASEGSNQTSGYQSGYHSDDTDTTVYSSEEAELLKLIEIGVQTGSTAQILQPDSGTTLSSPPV
Chain of FLT3 (P36888 27-993): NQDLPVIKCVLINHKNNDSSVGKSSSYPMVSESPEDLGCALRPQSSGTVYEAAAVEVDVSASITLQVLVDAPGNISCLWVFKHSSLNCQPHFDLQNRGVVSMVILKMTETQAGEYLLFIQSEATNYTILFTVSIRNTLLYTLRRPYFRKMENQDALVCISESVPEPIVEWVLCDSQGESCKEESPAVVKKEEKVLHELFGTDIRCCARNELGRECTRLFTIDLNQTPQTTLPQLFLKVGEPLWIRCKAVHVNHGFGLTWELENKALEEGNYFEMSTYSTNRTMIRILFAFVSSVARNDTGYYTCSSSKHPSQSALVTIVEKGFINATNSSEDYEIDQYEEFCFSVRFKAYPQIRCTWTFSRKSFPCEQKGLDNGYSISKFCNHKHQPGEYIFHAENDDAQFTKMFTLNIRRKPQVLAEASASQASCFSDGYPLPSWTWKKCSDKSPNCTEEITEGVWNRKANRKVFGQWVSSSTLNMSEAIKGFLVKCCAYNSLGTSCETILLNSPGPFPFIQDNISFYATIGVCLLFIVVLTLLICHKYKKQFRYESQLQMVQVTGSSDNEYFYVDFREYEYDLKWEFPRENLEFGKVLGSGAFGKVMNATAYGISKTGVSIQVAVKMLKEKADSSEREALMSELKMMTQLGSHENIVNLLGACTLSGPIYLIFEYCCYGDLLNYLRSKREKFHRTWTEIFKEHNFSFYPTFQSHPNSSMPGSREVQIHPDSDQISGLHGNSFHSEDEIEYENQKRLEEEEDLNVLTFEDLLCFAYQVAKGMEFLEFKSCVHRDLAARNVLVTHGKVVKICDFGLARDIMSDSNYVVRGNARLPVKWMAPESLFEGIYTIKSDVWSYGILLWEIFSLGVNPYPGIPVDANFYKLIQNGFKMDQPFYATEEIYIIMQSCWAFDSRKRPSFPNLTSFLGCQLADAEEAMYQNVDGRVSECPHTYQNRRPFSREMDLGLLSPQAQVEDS
Chain of ABL1 (P00519 whole entry): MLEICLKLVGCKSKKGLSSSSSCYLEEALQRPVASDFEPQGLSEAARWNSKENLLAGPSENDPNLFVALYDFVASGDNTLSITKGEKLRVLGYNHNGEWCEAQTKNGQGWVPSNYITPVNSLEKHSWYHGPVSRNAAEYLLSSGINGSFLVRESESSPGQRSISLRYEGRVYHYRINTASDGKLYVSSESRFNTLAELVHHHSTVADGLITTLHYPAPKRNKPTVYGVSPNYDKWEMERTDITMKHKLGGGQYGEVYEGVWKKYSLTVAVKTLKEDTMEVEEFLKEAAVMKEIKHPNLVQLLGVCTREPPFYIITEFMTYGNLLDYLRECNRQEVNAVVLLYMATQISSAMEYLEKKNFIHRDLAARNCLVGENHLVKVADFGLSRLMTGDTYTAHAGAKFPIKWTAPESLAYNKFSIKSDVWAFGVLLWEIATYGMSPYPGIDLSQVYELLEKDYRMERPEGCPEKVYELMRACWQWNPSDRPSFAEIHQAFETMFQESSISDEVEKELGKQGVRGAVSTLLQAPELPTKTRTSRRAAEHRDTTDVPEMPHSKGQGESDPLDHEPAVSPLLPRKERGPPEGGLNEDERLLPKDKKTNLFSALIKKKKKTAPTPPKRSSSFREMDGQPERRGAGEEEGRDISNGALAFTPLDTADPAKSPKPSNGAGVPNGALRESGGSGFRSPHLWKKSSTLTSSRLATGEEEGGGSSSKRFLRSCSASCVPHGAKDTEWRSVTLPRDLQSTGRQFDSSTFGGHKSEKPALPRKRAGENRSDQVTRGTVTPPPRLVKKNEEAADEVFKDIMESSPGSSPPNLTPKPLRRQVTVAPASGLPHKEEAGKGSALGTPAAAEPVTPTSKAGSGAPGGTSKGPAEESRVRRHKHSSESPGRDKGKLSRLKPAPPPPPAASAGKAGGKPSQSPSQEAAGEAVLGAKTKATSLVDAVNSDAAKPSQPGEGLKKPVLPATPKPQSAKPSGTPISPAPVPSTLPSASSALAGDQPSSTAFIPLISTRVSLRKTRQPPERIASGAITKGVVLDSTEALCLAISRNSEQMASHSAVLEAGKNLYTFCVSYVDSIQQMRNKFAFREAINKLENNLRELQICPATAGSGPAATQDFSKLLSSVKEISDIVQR

Structure (SMILES): COc1cc2c(Nc3ccc(Br)cc3F)ncnc2cc1OCCCCN(C)C.Cl.Cl [HA121-28, N-(4-bromo-2-fluorophenyl)-7-(4-(dimethylamino)butoxy)-6-methoxy quinazolin-4-amine dihydrochloride]
- IC50 [1]: 35.7 nM
- IC50 [2]: 207 ± 38.3 nM
- IC50 [3]: 716 ± 154 nM
- activation of RET and downstream ERK [4]: significantly inhibited
- in vivo anti-tumor effect ([5]; 50 mg/kg): tumor shrinkage was observed
- RTV ±SD ([5]; 25 mg/kg): 2.1±0.6
- T/C ([5]; 25 mg/kg): 33.8%
- Terminal Tumor Volume ([5]; 25 mg/kg): 307.4±69.5** mm^3
- RTV ±SD ([5]; 50 mg/kg): 0.8±0.2
- T/C ([5]; 50 mg/kg): 13.6%
- Terminal Tumor Volume ([5]; 50 mg/kg): 131.9±66.5** mm^3
- RTV ±SD ([5]; 75 mg/kg): 0.5±0.2
- T/C ([5]; 75 mg/kg): 8.7%
- Terminal Tumor Volume ([5]; 75 mg/kg): 86.9±40.0** mm^3
- plasma protein binding rate [6]: 92.4±1.28%
- plasma protein binding rate [7]: 92.5±0.331%
- IC50 [8]: 556 nM
- IC50 [9]: 153 nM
- IC50 [10]: 65.4 nM

Source: publication PMC11868595, “Safety, pharmacokinetics and efficacy of HA121-28 in patients with advanced solid tumors and RET fusion-positive non-small-cell lung cancer: a multicenter, open-label, single-arm phase 1/2 trial” (Signal Transduction and Targeted Therapy, 2025)
